The text below walks through data of paper PMC5908134, “Saccharomyces cerevisiae as a platform for assessing sphingolipid lipid kinase inhibitors” (PLoS ONE, 2018).

For data set [1], the target named is T1, human SphK1 (Homo sapiens, UniProt Q9NYA1).
T1 construct: constructed by sub-cloning DNA encoding the indicated translational open reading frames into the pYES2-FLAG-URA expression vector; expressed in transfected cells; host or cells: Saccharomyces cerevisiae CBY169 or KYA1, plasmid pGAL-HsSPHK1
Kind of data set: yeast growth rescue assay, strain CBY169 expressing human SphK1. The format is cell-based. As to conditions: for rescue of growth in galactose media: strain CBY169 expressing human SphK1. From the text:
(§1) The plasmids pGAL-HsSPHK1, pGAL-HsSPHK2, pGAL-MmSphk1, pGAL-MmSphk1L277M, pGAL-MmSphk2, pGAL-HsCERK and pGAL-SK2_MOD used in this study were constructed by sub-cloning DNA encoding the indicated translational open reading frames into the pYES2-FLAG-URA expression vector (provided by Dr. Cungui Mao). […] Excepting human and mouse SphK2, the DNA sequences are synthetic (from GeneWiz LLC (South Plainfield, NJ)) and were optimized for expression in S. cerevisiae.
(§2) Yeast harboring plasmids were selected and maintained on synthetic complete media lacking uracil (SC-URA) with 2% glucose as the fermentable carbon source. After overnight growth at 30°C in this media, the cultures were diluted 1:100 into SC-URA media supplemented with 2% galactose and various concentrations of test inhibitor. After a further 24–48 hours incubation at 30°C, the extent of growth was assessed by measuring absorbance at 600 nm. […] Tubes were incubated in a rotating drum while plates were agitated using a plate mixer. A600 for 96-well plate cultures was determined using a Molecular Devices SpectraMax M5 plate reader. Test compounds were dissolved in DMSO at 40–50 mM and diluted into water containing 0.1% fatty acid free bovine serum albumin. In all cases, the DMSO concentration in the assay was less than 2% (v/v).

The target in data set [2] is recombinant human SphK1. Also on record: method as in PMID 21216217. The conditions noted are these: determined previously; cited from earlier work.
The target of data set [3] is T2, human CerK (Homo sapiens, UniProt Q8TCT0).
T2 construct: constructed by sub-cloning DNA encoding the indicated translational open reading frames into the pYES2-FLAG-URA expression vector; expressed in transfected cells; host or cells: Saccharomyces cerevisiae JS1256, plasmid pGAL-HsCERK
T2 sequence (Q8TCT0 1-537): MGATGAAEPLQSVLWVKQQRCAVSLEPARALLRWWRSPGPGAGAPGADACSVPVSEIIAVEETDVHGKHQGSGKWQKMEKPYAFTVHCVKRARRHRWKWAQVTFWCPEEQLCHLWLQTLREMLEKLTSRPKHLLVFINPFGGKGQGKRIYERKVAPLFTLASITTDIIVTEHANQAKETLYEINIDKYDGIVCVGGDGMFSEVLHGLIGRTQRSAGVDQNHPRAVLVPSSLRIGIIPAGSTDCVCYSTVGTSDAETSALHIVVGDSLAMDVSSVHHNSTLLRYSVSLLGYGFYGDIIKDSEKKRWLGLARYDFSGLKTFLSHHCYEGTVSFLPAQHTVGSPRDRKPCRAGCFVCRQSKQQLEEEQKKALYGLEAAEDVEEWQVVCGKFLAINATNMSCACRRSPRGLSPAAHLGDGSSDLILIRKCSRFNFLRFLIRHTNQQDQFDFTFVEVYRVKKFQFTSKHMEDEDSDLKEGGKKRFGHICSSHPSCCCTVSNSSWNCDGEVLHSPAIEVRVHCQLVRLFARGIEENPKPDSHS
Put plainly: yeast growth rescue assay, strain JS1256 (WT) expressing human CerK. Format: cell-based. As to conditions: galactose media. From the text:
(§3) The yeast strains used in this study include JS1256 (MATa his3Δ1 leu2Δ0 met15Δ0 ura3Δ0) and CBY169 (MATα leu2-3,112 ura3-52 his4 trp1 rme1 dpl1Δ::TRP1 lcb3Δ::LEU2 lcb4Δ::kanMX lcb5Δ::kanMX) (the latter provided by Kyle Cunningham). The CBY169 strain was modified further by replacement of the PDR5 gene with a selectable marker (confers resistance to clonat) to generate strain KYA1 (MATα leu2-3,112 ura3-52 his4 trp1 rme1 dpl1Δ::TRP1 lcb3Δ::LEU2 lcb4Δ::kanMX lcb5Δ::kanMX pdr5Δ::natMX).
(§4) The plasmids pGAL-HsSPHK1, pGAL-HsSPHK2, pGAL-MmSphk1, pGAL-MmSphk1L277M, pGAL-MmSphk2, pGAL-HsCERK and pGAL-SK2_MOD used in this study were constructed by sub-cloning DNA encoding the indicated translational open reading frames into the pYES2-FLAG-URA expression vector (provided by Dr. Cungui Mao). The encoded proteins all have an amino terminal FLAG epitope tag ([…]) and their expression is under the control of the GAL1,10 promoter. Excepting human and mouse SphK2, the DNA sequences are synthetic (from GeneWiz LLC (South Plainfield, NJ)) and were optimized for expression in S. cerevisiae.

The test system of data set [4] is yeast strain CBY169. Kind of data set: toxicity for yeast (growth of strains without lipid kinase expression). As to conditions: yeast strain CBY169. How it is done: as §2
The salient limitations of the yeast assay are those of any cell-based assay. Namely, the assay reports EC50 values rather than Km, Vmax or kcat values of inhibitors, test compounds must not be markedly cytotoxic at the concentrations tested and compounds must accumulate to some extent in the yeast. Cytotoxicity is readily discerned by testing compounds for an effect on growth of strains without lipid kinase expression.

Data set [5] concerns the target T3, human SphK2 (Homo sapiens, UniProt Q9NRA0).
T3 construct: full length (wild type hSK2); expressed in transfected cells; host or cells: Saccharomyces cerevisiae CBY169 or KYA1, plasmid pGAL-HsSPHK2
T3 sequence (Q9NRA0 1-618 isoform Q9NRA0-2): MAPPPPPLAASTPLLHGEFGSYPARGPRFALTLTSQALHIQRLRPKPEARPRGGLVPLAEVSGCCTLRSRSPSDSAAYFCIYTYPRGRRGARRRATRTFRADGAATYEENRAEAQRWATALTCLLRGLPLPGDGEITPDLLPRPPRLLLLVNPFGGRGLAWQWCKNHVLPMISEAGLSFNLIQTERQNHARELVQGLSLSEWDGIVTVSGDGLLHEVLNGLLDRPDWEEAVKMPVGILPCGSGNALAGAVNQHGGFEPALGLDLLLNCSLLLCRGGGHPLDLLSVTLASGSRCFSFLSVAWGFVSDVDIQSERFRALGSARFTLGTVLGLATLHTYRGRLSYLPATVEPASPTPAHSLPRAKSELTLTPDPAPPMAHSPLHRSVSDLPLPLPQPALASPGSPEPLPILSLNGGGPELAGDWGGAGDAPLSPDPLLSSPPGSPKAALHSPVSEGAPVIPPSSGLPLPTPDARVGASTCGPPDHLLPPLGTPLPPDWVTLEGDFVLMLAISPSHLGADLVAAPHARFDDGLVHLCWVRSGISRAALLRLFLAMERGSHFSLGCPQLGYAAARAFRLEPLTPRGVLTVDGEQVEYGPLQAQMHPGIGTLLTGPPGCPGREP
Put plainly: yeast growth rescue assay, strain KYA1 (PDR5 deleted) expressing human SphK2. Format: cell-based.
Source text: as §3, §4

In data set [6] the target is T1, human SphK1. Kind of data set: yeast growth rescue assay, strain KYA1 (PDR5 deleted) expressing human SphK1. The format is cell-based.
Source text: as §1, §2

The target of data set [7] is T3, human SphK2. Kind of data set: yeast growth rescue assay, strain CBY169 expressing human SphK2. Format: cell-based.
Source text: as §1

The target of data set [8] is sphingosine kinase. Also on record: method as in PMID 21216217. The conditions noted are these: cited from earlier work.
Data set [9] concerns the target T4, mouse SphK1 L277M (Mus musculus, UniProt Q8CI15, L271M).
T4 construct: constructed by sub-cloning DNA encoding the indicated translational open reading frames into the pYES2-FLAG-URA expression vector; expressed in transfected cells; host or cells: Saccharomyces cerevisiae (CBY169, printed 'CYA169', and KYA1), plasmid pGAL-MmSphk1L277M
Put plainly: yeast growth rescue assay, mouse SphK1 L277M mutant versus wild type mouse SphK1. Format: cell-based.
Source text: as §1

The test system of data set [10] is human and rat SphK1 and SphK2. Also on record: method as in PMID 26243740. As to conditions: cited from earlier work.
Data set [11] addresses T3, human SphK2. Put plainly: LCMS of phospho-LCBs in yeast expressing human SphK2. The format is cell-based. As to conditions: yeast with pGAL-HsSPHK2, galactose media, 6 hours, inhibitor 300 nM. The method, then:
Cell pellets (approximately 5 million cells) were mixed with 2 mL of a 3:1 methanol/chloroform mixture and transferred to a capped glass vial. To this suspension was added 10 μL of internal standard solution containing 1 μM d7S1P (deuterated sphingosine 1-phosphate) (Avanti Polar Lipids). The mixture was homogenized in a bath sonicator for 10 min and incubated at 48°C for 16 h. The mixture was then cooled to room temperature and mixed with 200 μL of 1 M KOH in methanol. The samples were again sonicated and incubated at 37°C for 2 h. After this time, the samples were neutralized through the addition of 20 μL of glacial acetic acid and transferred to 2 mL microcentrifuge tubes. […] Immediately before LCMS analysis, the material was dissolved in 300 μL of methanol, clarified by centrifuged at 12,000 x g for 12 min at 4°C, and analyzed by LCMS.
Analyses were performed using a triple quadrupole mass spectrometer (Sciex 4000 Q-Trap) coupled to a Shimadzu LC-20AD liquid chromatography system. […] Sphingolipids were detected using MRM (multiple reaction monitoring) methods as follows: d7S1P (387.4→271.3); dhS1P (382.4→266.4); dhSph (dihydroSphingosine) (302.5→60.0); phytoS1P (398.3→300.4) and phytosSph (318.4→282.3).
Yeast were cultured for 6 hours in the indicated media; inhibitors were present at 300 nM. Sphingolipids in cell pellets were analyzed by LCMS (see Methods for details).

The target in data set [12] is T5, human SphK2 deletion mutant 11–1 (12–137 & 371–436 deleted) (Homo sapiens, UniProt Q9NRA0, D462G/DEL396-461/E171D/G163S/G648A).
T5 construct: a set of mutants lacking portions of the non-SphK1 overlapping amino acids of human SphK2; expressed in transfected cells; host or cells: Saccharomyces cerevisiae CBY169
T5 sequence (Q9NRA0 with tags, fused parts or gaps isoform Q9NRA0-2 G127S/E135D/DEL360-425/D426G/G612A): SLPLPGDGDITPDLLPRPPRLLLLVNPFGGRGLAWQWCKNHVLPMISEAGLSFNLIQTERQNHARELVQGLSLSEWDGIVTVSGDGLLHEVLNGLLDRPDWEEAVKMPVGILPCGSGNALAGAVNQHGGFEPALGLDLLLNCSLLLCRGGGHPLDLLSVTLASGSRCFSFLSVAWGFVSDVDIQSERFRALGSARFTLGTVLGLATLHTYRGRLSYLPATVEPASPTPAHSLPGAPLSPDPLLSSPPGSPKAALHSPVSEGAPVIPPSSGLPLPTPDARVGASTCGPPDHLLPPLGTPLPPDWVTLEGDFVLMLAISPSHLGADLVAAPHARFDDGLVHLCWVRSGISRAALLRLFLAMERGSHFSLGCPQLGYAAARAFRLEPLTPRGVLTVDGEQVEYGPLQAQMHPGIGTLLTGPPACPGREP
Put plainly: yeast growth rescue, CBY169, human SphK2 deletion mutant 11–1. The format is cell-based. As to conditions: mutant 11–1 (191 aa deleted). From the text:
While some of the nucleotide changes were translationally silent, the altered human SphK2 (termed ‘SK2_MOD’) DNA encoded five amino acid changes (Glu71Asp, Gly138Ser, Glu146Asp, Glu437Gly, Gly623Ala).

Each structure is given as a SMILES string. pEC50, pKi: −log10 of the molar value. “Also recorded” adds a separate entry of the source.

T1 sequence (Q9NYA1 whole entry): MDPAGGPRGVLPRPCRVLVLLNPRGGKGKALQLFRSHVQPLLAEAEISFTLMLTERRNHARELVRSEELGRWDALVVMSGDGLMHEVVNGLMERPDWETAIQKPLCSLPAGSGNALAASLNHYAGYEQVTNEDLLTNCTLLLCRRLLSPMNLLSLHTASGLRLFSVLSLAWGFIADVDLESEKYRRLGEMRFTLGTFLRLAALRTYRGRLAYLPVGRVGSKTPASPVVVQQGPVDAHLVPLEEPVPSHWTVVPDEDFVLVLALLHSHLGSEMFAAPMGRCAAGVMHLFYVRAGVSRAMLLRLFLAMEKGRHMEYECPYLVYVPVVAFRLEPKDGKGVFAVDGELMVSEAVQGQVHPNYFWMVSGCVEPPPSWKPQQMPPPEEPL
T4 sequence (Q8CI15 1-388 isoform Q8CI15-2 L277M): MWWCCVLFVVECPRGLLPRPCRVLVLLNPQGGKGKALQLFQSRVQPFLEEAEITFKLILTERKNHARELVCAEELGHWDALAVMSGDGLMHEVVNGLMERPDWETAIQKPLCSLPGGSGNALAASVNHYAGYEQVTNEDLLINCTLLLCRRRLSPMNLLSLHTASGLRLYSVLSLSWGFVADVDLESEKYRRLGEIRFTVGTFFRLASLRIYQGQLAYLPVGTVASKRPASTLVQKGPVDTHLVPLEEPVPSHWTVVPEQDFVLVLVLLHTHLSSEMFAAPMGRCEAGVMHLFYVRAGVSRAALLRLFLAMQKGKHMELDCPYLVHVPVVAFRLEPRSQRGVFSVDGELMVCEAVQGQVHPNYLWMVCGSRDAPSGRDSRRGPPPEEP

`CCCCCCCc1ccc(NC(=O)[C@@H](N)CCO)cc1` [9ab] gave a negative logarithm of the EC50 (pEC50) in data set [1] of 6.05. For the same compound, the pKi in data set [2] is 5.77 to 5.85.
For `O=C(Nc1nc2ccc(NC(=O)C34CC5CC(CC(C5)C3)C4)cc2s1)c1ccccc1` [NVP-231], the rescue of growth result in data set [3] is given as “growth was restored in a dose dependent fashion”.
Consider `Oc1ccc(Nc2nc(-c3ccc(Cl)cc3)cs2)cc1` [SKI-II], for which the “concentrations at which toxic for yeast” value in data set [4] is listed as “above 3 μM”. Moreover, the “rescue of growth in galactose media” value in data set [1] is on record as “failed to rescue growth”. For the same compound, the rescue of growth entry in [5] (strain KYA1 expressing human SphK2), in [6] and in [7] was “failed to rescue growth” throughout. For the same compound, the pKi in [8] is 4.52 to 4.92.
Take `CCCCCOc1ccc2cc(-c3noc([C@@H]4[C@@H](O)CCN4C(=N)N)n3)ccc2c1` [SLC5111312]: the “concentrations at which toxic for yeast” value in [4] lay in the range of 2 to 3 µM. Moreover, in [9] (mouse SphK1 L277M versus human SphK1, yeast growth rescue), the “EC50 values for mutant mouse enzyme versus human enzyme” value was “similar”. For the same compound, the “potency at mutant (L277M) versus wild type mouse SphK1” value in [9] (yeast growth rescue) was “distinctly more potent”. The “rescue of growth in galactose media” value in data set [1] is reported as “restored full growth”. Also, in data set [10], the “potency at SphK1 versus SphK2” value is “equipotent”. Further, the rescue of growth entry in data set [7] is listed as “rescued growth”.
Take `CCCCCCCCOc1ccc(-c2noc([C@@H]3CCCN3C(=N)N)n2)cc1C(F)(F)F` [SLM6031434]: the “concentrations at which toxic for yeast” value in data set [4] fell in the range of 2 to 3 µM. Besides, the “potency in CBY169 vs. KYA1 strains (PDR5p status)” value in [5] (presence (CBY169) or absence (KYA1) of PDR5) is “the same; also recorded: not different”. Besides, the phospho-LCB levels result in data set [11] is “decreased”. Moreover, the loss of potency in data set [12] is given as approximately 3 fold. The rescue of growth result in [7] is “rescued growth”.

Usually pEC50 stands for −log10 of the EC50, conventionally taken in molar units. What is called pKi is the Ki on a negative log10 scale, so that one unit is a factor of ten.
